Data reported in patent US7745465B2, “Method of enhancing cellular production of molecular chaperone, hydroxylamine derivatives useful for enhancing the chaperone production and the preparation thereof” (CytRx Corporation, priority 1995, dated 2010).

What was measured:
Male Sprague-Dawley rats = assay: Protection against cardiac ischaemia: survival after 5 minutes coronary occlusion and reperfusion; type: in vivo, rat; details: i.v. 1 mg/kgbw, 5 min. before the occlusion; non-treated control 10
Protocol: Male Sprague-Dawley rats (380-450 g b.w.) were anaesthetized with sodiumpentobarbital (Nembutal 60 mg/kg body weight, i.p.) and artificially ventilated with room air (2 ml/100 g; 54 stroke/minutes) via tracheotomy. The right carotid artery was catheterized and connected to a pressure transducer (BPR-01, Stoelting) for the measurement of systemic arterial blood pressure (BP) by means of a preamplifier (Hg-02, Experimetria). Hydroxylamine derivatives disclosed in Example 5 were administered via the venous cannule to jugular vein (i.v.) and orally (p.o.). Heart rate (HR) was measured by a cardiotachometer (HR-01, Experimetria). The electrocardiogram (ECG standard lead II) was recorded on a devices recorder (MR-12, Medicor) by means of subcutaneous steel needles electrodes. The chest was opened by a left thoracotomy and the heart was exteriorized by a gentle pressure on the right side of the rib cage. A 4-0 silk suture was quickly placed under the main left coronary artery as described by Selye et al. (1960). The heart was carefully replaced in the chest and the animal left to recover. Rectal temperature was monitored and kept constant at 37 C. The experimental protocol was initiated with a 15 minute stabilization period during which the observation of a sustained blood pressure less than 70 mmHg and or the occurrence of anhythmia led to exclusion. Myocardial ischemia was induced with coronary occlusion for 5 minutes and reperfusion allowed for 10 minutes.
During the entire experiment BP, HR and ECG were continuously registered on a multiscriptor (R61-6CH, Medicor). Hydroxylamine derivatives, the tautomeric forms of which are represented by structures (I) and (II), were administered 5 to 60 minutes before the occlusion after i.v. and p.o. treatment, respectively. […]
The mean duration of ventricular tachycardia (VT) and/or ventricular fibrillation (VF) during the first 3 minutes of reperfusion was analyzed by one-way analysis of variance. The incidence of VF was analyzed using a chi-square test. […] The haemodynamic variables were analyzed using Student's “t”-test. The critical level of significance was set at p<0.05. All results were expressed as a means±S.E.M. Drugs were administered i.v. in a dose of 1 mg/kgbw 5 min. before the occlusion.
The hydroxylamine derivatives that are found to be particularly advantageous for protecting an animal against ischemic/reperfusion injury are listed below. Survival (%) indicates the percent of animals survived the effects of 5 minutes coronary occlusion.

[1] = test system: Rats with genetic hypertension; assay: Morphological examination of the thoracic aorta of rats with genetic hypertension; type: in vivo, rat; details: daily oral treatment (20 mg/kg 8 days or 5 mg/kg 20 days)
Protocol: Rats with genetic hypertension were divided into four groups of four. The groups were treated daily, orally, the first group with physiological saline, the second group with N-[2-hydroxy-3-(1-piperidinyl)]-propoxy-3-pyridine-carboximidoyl-chloride maleate (20 mg/kg) for 8 days, the third group with N-[2-hydroxy-3-(1-piperidinyl)-propoxy]-benzimidoyl-chloride monohydrochloride (5 mg/kg) for 20 days and the fourth group with N-[2-hydroxy-3-(1-piperidinyl)-propoxy]-2-thiophenecarboximidoyl-chloride monohydrochloride (5 mg/kg) for 20 days. Animals were sacrificed, aortas were isolated, snap frozen in liquid nitrogen and were stored at −70° C. till they were used.
The examination was performed according to published methods (Br. J. of Pharmacol., 1995; 115, […]). A 1 mm^2 area of the thoracic aorta was excised and fixed in 2.5% glutaral-dehyde at room temperature. Post fixation was performed in 1% osmium-tetroxide for one hour. The tissue was dehydrated in ethanol and was embedded in Durcupan ACM. Pictures were taken by a Hitachi 7100 electronmicroscope and were evaluated qualitatively.

Hsp72 [2] = assay: Heat stress induced hsp72 expression in rat testicular explant; type: cell-based; details: 10^−5 M, 15 min. before 43° C. 30 min.
Protocol: Testis of CFY rats weighing of 200 g were removed in sterile conditions and the released testicular tubuli were suspended in 10% fetal bovine serum containing MEM culture medium in that way that five ml suspension contained 50-100 mg tissue. The explants were incubated in 5% CO2 containing humidified air at 37° C. for one hour, then the cultures were treated with 10^−5 M concentration of the tested compounds. After a further incubation for 15 min. at 37° C., explants were exposed to heat shock at 43° C. for 30 min. The amount of the induced hsp72 was measured after a further 6 hours incubation at 37° C.

Hsp72 [3] = assay: Heat stress induced hsp72 expression in rat spleen explant; type: cell-based; details: 10^−5 M, 15 min. before 43° C. 30 min.
Protocol: These experiments were performed on rat spleen and testicular tissue explants applying heat stress after treatment with the experimental compounds. Experiments on spleen suspension were carried out as follows.
Spleens of CFY rats weighing 200 g were removed aseptically, and were homogenized in 10% fetal bovine serum containing MEM culture medium. The concentration of the cell suspension was adjusted to 50-100 mg/5 ml.
Five ml cell suspension was given into each of the culture dishes of 6 cm of diameter and the explants were incubated for one hour in a 5% CO2 containing humidified air at 37° C. then cultures were treated with the 10^−5 M concentration of the test compounds. After further 15 min. incubation at 37° C. the cultures were exposed to heat shock at 43° C. for 30 min. in an incubator. The amount of the induced hsp72 was measured after a further 6 hours incubation at 37° C.

HSP72 [4] = assay: Heat stress induced HSP72 production in 3T3 cells; type: cell-based, mouse; details: 10^−5 M
Protocol: (§1) From the applied cells the 3T3 and L-929 mouse fibroblasts were cultured in MEM medium and grew in monolayer, the U-937 human leukemia cells were maintained in RPMI-1640 medium, in suspension culture, while the HeLa human epithelial cells were cultured in DMEM medium and in monolayer form. Cell cultures were maintained as described in example 6.2 (a) with the difference that cells were cultured in the above mentioned culture mediums.
(§2) Experiments were carried out applying stress before and after the drug treatment. Stress was provoked by heat, by chemical agent, HgCl2 treatment. The test compounds were applied in the treatments at the 10^−5 M concentration.
The experiments on 3T3 cell applying heat stress were performed as described in the 6.2. (c) point of example 6, with the difference that stress was induced by a 30 min. exposure at 43° C. temperature and treatment with the test compounds was performed 15 min. before or 100 min. after the heat stress.
Immunodetection was carried out using the HSP72 specific SPA 810 (StressGene) primary and the horse-radish peroxidase conjugated A9044 (Sigma) secondary antibodies. Densitometric evaluation was performed by a LKB Ultrascan XL densitometer.

hsp72 [5] = assay: HgCl2 stress induced hsp72 level in HeLa cells; type: cell-based, human; details: 10^−5 M, 0.5 μg/ml HgCl2, 6 hours
Protocol: as §1, §2
These experiments were performed on HeLa, human epithelial and U-937, human leukemia cells using HgCl2 to induce stress response. Drug treatment was carried out before cells were exposed to the stress. Test cultures were prepared and treatments were performed as in the experiments with the 3T3 cells. After the drug treatment cells were incubated at 37° C. for 15 min. than all the cultures except two (non stressed control) were exposed to 0.5 μg/ml concentration of HgCl2 and the incubation was followed. The induced amount of hsp72 was measured 6 hours after the exposure to stress.

GRP-94 = assay: Level of GRP-94 in STZ diabetic rat liver (Western blot); type: in vivo
[6] = treatment 15 min. before 30 min. 43° C. heat stress
[7] = treatment 100 min. after 30 min. 43° C. heat stress

| Compound | melting point | Survival (%) (Male Sprague-Dawley rats) | Level of hsp72 relative to the stress exposed control (Hsp72 [2]) | also measured |
| --- | --- | --- | --- | --- |
| N=C(NOCC(CN1CCCCC1)OC(=O)c1ccco1)c1cccnc1.O=C(O)/C=C\C(=O)O (stereo not drawn) | 167 to 171.5 °C | – | – | – |
| Cl.N=C(NOCCCN1CCCCC1)c1cccc([N+](=O)[O-])c1 | 158 to 162 °C | – | – | – |
| Cl.Cl.N=C(NOCC(O)CN1CCCCC1)c1cccs1 (stereo not drawn) | 157 to 170 °C | – | – | – |
| Cl.OC(CONC(=NC1CCCCC1)c1cccnc1)CN1CCCCC1 (stereo not drawn) | 130 to 134 °C | – | – | – |
| Cl.OC(CON=C(Cl)c1cccs1)CN1CCCCC1 (stereo not drawn) [Example 1, N-[2-hydroxy-3-(1-piperidinyl)propoxyl]-2-thiophenecarboximidoyl chloride monohydrochloride] | – | 100% | – | regeneration of the cells of aorta [1]: facilitated the regeneration of the cells of aorta |
| CCN(CC)CC(O)CON=C(Cl)c1cccc(C(F)(F)F)c1.Cl (stereo not drawn) [Example 12, N-[3-(diethylamino)-2-hydroxypropoxy]-3-trifluoromethyl-benzenecarboximidoyl chloride monohydrochloride] | 121 to 128 °C | – | + (21-50%) | – |
| O=C(O)/C=C\C(=O)O.O=C(OC(CON=C(Cl)c1cccnc1)CN1CCCCC1)c1ccccc1 (stereo not drawn) [Example 21, N-[2-benzoyloxy-3-(1-piperidinyl)propoxy]-3-pyridinecarboximidoyl chloride (Z)-2-butenedioate (1:1)] | 134 to 136 °C | – | + + | – |
| CCCCCCCCCCCCCCCC(=O)OC(CON=C(Cl)c1cccnc1)CN1CCCCC1.Cl.Cl (stereo not drawn) [Example 23, N-[2-palmitoyloxy-3-(1-piperidinyl)propoxy]-3-pyridinecarboximidoyl chloride dihydrochloride] | 69 to 73.5 °C | – | + + + | – |
| CCCCCCCNC(=O)NOCC(O)CN1CCCCC1 (stereo not drawn) [Example 55, N-[2-hydroxy-3-(1-piperidinyl)propoxy]-N′-heptyl-urea] | – | – | + + | Level of hsp72 relative to the stress exposed control (Hsp72 [3]): +++ (>100%) |
| O=C(NOCC(O)CN1CCCCC1)Nc1cccc(Cl)c1 (stereo not drawn) [Example 59, N-(3-chlorophenyl)-N′-[2-hydroxy-3-(1-piperidinyl)propoxy]-urea] | – | – | – | HSP72 level relative to the stress exposed control (HSP72 [4]; [6]): +++ (>100%); Level of hsp72 relative to the stress exposed control (Hsp72 [3]): +++ (>100%) |
| c1cncc(C2=NOCC(CN3CCCCC3)N2)c1 (stereo not drawn) [Example 64, 5,6-Dihydro-5-(1-piperidinyl)methyl-3-(3-pyridyl)-4H-1,2,4-oxadiazine] | – | 100% | + + | HSP72 level relative to the stress exposed control (HSP72 [4]; [6]): +++ (>100%); HSP72 level relative to the stress exposed control (HSP72 [4]; [7]): 0 (0 indicates that the treatment altered by ±20% the stress induced hsp72 level in the cells); Level of hsp72 relative to the stress exposed control (Hsp72 [3]): 0 (0 indicates that the treatment altered by ±20% the stress induced hsp72 level in the cells) |
| CC(C)(C)NCC(O)CONC(=O)c1cccc(C(F)(F)F)c1 (stereo not drawn) [Example 65] | – | 78% | 0 (0 indicates that the treatment altered by ±20% the stress induced hsp72 level in the cells) | Level of hsp72 relative to the stress exposed control (Hsp72 [3]): + (21-50%) |
| Cl.O=[N+]([O-])c1cccc(C(Cl)=NOCCCN2CCCCC2)c1 [Example 79, O-(3-piperidinopropyl)-3-nitro-benzhydroximyl chloride hydrochloride] | – | 100% | + + | increase of the stress induced hsp72 level (hsp72 [5]): more than 50%; HSP72 level relative to the stress exposed control (HSP72 [4]; [6]): +++ (>100%); HSP72 level relative to the stress exposed control (HSP72 [4]; [7]): + (21-50%) |
| Cl.OC(CON=C(Cl)c1ccccc1)CN1CCCCC1 (stereo not drawn) [N-[2-hydroxy-3-(1-piperidinyl)-propoxy]-benzimidoyl-chloride monohydrochloride] | – | 100% | + + + | increase of the stress induced hsp72 level (hsp72 [5]): more than 20%; HSP72 level relative to the stress exposed control (HSP72 [4]; [6]): + (21-50%); regeneration of the cells of aorta [1]: facilitated the regeneration of the cells of aorta |
| insulin: Insulin (Protophane HM inj.) [reference compound] | – | – | – | levels of GRP-94 compared to the control state (GRP-94; insulin alone, 1 week and 2-weeks samples): almost doubled; relative amount of GRP-94 (GRP-94; rats diabetic for 4 weeks, insulinized, not treated with the compound): recovery of GRP-94 to the control level |
